The text below walks through data of patent US11337964B2, “Isoindoline derivative, pharmaceutical composition and use thereof” (Kangpu Biopharmaceuticals, Ltd., priority 2017, dated 2022).

Structures are written as SMILES.

What all share (assay type): biochemical
Common to all, as to details: FAM-cAMP substrate, 30 minutes at room temperature

The target in one assay is T1, PDE4B1 (Homo sapiens, UniProt Q07343).
T1 construct: purchased BPS 60041
In words: PDE4 activity inhibition assay, PDE4B1. Here is the method:
(§1) The IC50 value of the inhibitory effect of the compound on PDE4A1A, PDE4B1 and PDE4D3 was tested.
(§2) Positive compound: Trequinsin (Sigma, Cat. No. T2057).
(§3) Equipment: Wallac Victor Multi-label counter (Perkin Elmer).
(§4) I. Preparing 1× reaction liquid and termination liquid;
(§5) II. PDE enzymatic reaction; • 1) The PDE was dissolved in 1× reaction solution to form 2× enzyme solution. • 2) FAM-cAMP was dissolved in 1× reaction solution to form 2× substrate solution. • 3) Echo 550 was used to transfer the corresponding volume of the compound in DMSO solution to the reaction plate. • 4) 2× enzyme solution was added into the corresponding well of the reaction plate and incubated with the compound solution at room temperature for 15 minutes. • 5) 2× substrate solution was added into the corresponding well of the reaction plate to initiate the reaction. • 6) Reaction plate was incubated at room temperature for 30 minutes and terminated by adding termination liquid, then incubated at room temperature for 60 minutes.
(§6) The inhibition rate was calculated by Excel; IC50 was calculated by GraphPad Prism.

For another assay, the target named is T2, PDE4D3 (Homo sapiens, UniProt Q08499).
T2 construct: purchased BPS 60046
T2 sequence (Q08499 1-673 isoform Q08499-2): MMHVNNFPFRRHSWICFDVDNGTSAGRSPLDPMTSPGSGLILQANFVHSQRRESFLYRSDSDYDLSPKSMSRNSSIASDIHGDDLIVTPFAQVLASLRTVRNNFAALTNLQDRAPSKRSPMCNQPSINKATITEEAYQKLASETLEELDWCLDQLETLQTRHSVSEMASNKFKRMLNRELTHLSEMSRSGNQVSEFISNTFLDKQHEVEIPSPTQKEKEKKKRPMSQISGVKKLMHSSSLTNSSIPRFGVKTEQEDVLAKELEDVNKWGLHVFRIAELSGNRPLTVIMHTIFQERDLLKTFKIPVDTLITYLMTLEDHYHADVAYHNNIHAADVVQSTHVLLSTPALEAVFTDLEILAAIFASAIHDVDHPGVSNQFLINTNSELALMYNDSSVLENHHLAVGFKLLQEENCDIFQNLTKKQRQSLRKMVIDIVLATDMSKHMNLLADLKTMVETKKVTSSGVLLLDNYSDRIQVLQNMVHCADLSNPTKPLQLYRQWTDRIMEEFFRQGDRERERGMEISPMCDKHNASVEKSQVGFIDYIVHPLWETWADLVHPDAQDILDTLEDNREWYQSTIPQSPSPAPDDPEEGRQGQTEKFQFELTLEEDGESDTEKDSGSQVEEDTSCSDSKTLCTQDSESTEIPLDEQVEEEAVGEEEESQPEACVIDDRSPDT
In words: PDE4 activity inhibition assay, PDE4D3. How it is done: as §1, §2, §3, §4, §5, §6

Another assay has as its target T3, PDE4A1A (Homo sapiens, UniProt P27815).
T3 construct: purchased BPS 60040
In words: PDE4 activity inhibition assay, PDE4A1A. How it is done:
as §1, §2, §3, §4, §5, §6

T1 sequence (Q07343 whole entry): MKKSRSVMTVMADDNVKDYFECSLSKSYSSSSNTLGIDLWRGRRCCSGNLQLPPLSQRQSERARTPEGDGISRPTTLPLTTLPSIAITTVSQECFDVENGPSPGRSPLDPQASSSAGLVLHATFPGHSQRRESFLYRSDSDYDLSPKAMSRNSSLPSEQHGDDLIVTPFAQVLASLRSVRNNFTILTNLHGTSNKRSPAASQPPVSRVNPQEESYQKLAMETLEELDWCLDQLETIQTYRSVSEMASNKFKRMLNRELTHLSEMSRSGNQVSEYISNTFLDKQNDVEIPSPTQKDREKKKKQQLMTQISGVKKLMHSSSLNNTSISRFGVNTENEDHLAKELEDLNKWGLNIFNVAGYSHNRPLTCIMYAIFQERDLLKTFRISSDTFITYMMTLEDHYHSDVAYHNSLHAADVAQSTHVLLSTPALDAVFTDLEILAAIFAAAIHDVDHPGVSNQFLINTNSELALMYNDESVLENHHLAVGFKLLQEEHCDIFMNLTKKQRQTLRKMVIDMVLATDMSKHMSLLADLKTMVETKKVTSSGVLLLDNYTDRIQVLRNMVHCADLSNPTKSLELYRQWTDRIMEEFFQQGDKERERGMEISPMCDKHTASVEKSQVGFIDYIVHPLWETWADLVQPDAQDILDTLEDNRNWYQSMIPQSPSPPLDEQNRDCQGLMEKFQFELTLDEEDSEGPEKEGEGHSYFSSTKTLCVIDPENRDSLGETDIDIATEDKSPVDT
T3 sequence (P27815 1-647 isoform P27815-4): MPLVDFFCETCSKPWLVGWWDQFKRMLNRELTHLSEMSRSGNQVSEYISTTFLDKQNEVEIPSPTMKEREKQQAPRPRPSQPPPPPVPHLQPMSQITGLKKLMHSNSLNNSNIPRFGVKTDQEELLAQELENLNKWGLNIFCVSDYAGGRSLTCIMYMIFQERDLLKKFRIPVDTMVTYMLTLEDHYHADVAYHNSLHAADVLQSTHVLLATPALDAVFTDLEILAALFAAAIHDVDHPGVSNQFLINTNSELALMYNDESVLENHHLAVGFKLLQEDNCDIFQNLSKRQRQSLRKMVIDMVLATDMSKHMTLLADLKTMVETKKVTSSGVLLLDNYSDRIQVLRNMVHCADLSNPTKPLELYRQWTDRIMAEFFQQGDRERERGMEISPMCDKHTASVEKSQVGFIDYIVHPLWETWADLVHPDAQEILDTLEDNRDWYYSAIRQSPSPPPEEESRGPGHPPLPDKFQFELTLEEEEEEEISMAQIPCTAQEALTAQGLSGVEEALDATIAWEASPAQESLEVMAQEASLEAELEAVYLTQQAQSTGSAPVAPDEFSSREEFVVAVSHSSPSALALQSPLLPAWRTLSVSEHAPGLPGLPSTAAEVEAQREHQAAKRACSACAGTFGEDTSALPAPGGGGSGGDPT

Consider `CCOc1cc(C(CS(C)(=O)=O)N2C(=O)c3c(F)ccc(NC(C)=O)c3C2=O)ccc1OC` (stereo not drawn) [Compound 101, N-(2-(1-(3-ethoxy-4-methoxyphenyl)-2-(methylsulfonyl)ethyl)-7-fluoro-1,3-dioxoisoindolin-4-yl)acetamide], for which the figures for the 50% inhibitory concentration (IC50) against PDE4B1, on PDE4D3 and on PDE4A1A were 27 nM, 12 nM and 17 nM, respectively.
On the same counts, the results for `CCOc1cc([C@@H](CS(C)(=O)=O)N2C(=O)c3c(F)ccc(NC(C)=O)c3C2=O)ccc1OC` [Compound 102, (S)—N-(2-(1-(3-ethoxy-4-methoxyphenyl)-2-(methylsulfonyl)ethyl)-7-fluoro-1,3-dioxoisoindolin-4-yl)acetamide] are 14 nM, 7.4 nM and 11 nM.
On to `[2H]C([2H])([2H])Oc1ccc([C@H](CS(C)(=O)=O)N2C(=O)c3c(F)ccc(NC(C)=O)c3C2=O)cc1OCC` [Compound 104, (R)—N-(2-(1-(3-ethoxy-4-d3-methoxyphenyl)-2-(methylsulfonyl)ethyl)-7-fluoro-1,3-dioxoisoindolin-4-yl)acetamide], for which the IC50 (commonly the concentration at which inhibition is half-maximal) against PDE4B1 was 70 nM; against PDE4D3, 31 nM; against PDE4A1A it was 53 nM.
For the compound `[2H]C([2H])([2H])Oc1ccc([C@@H](CS(C)(=O)=O)N2C(=O)c3c(F)ccc(NC(C)=O)c3C2=O)cc1OC([2H])([2H])[2H]` [Compound 105, (S)—N-(2-(1-(3,4-d6-dimethoxyphenyl)-2-(methylsulfonyl)ethyl)-7-fluoro-1,3-dioxoisoindolin-4-yl)acetamide], the figures for the IC50 against PDE4B1, against PDE4D3 and at PDE4A1A were 97 nM, 41 nM and 61 nM, respectively.
In the case of `[2H]C([2H])([2H])Oc1ccc([C@H](CS(C)(=O)=O)N2C(=O)c3c(F)ccc(NC(C)=O)c3C2=O)cc1OC([2H])([2H])[2H]` [Compound 106, (R)—N-(2-(1-(3,4-d6-dimethoxyphenyl)-2-(methylsulfonyl)ethyl)-7-fluoro-1,3-dioxoisoindolin-4-yl)acetamide], the values for the IC50 at PDE4B1, on PDE4D3 and on PDE4A1A were 493 nM, 300 nM and 340 nM, respectively.
On the same counts, the results for `[2H]C([2H])([2H])Oc1ccc([C@@H](CS(C)(=O)=O)N2C(=O)c3c(F)ccc(NC(C)=O)c3C2=O)cc1OC([2H])([2H])C([2H])([2H])[2H]` [Compound 107, (S)—N-(2-(1-(3-d5-ethoxy-4-d3-methoxyphenyl)-2-(methylsulfonyl)ethyl)-7-fluoro-1,3-dioxoisoindolin-4-yl)acetamide] are 12 nM, 4.6 nM and 8.3 nM.
On to `CCOc1cc([C@@H](CS(C)(=O)=O)N2C(=O)c3c(Cl)ccc(NC(C)=O)c3C2=O)ccc1OC` [Compound 111, (S)—N-(7-chloro-2-(1-(3-ethoxy-4-methoxyphenyl)-2-(methylsulfonyl)ethyl)-1,3-dioxoisoindolin-4-yl)acetamide], for which the results for the IC50 at PDE4B1, against PDE4D3 and at PDE4A1A were 4.3 nM, 1.9 nM and 1.3 nM, respectively.
For `[2H]C([2H])([2H])Oc1ccc([C@@H](CS(C)(=O)=O)N2C(=O)c3c(Cl)ccc(NC(C)=O)c3C2=O)cc1OCC` [Compound 113, (S)—N-(7-chloro-2-(1-(3-ethoxy-4-d3-methoxyphenyl)-2-(methylsulfonyl)ethyl)-1,3-dioxoisoindolin-4-yl)acetamide], in that order: 5.1 nM, 1.3 nM and 2.1 nM.
For `CCOc1cc([C@@H](CS(C)(=O)=O)N2C(=O)c3c(C#N)ccc(NC(C)=O)c3C2=O)ccc1OC` [Compound 115, (S)—N-(7-cyano-2-(l 1-(3-ethoxy-4-methoxyphenyl)-2-(methylsulfonyl)ethyl)-1,3-dioxoisoindolin-4-yl)acetamide], in that order: 17.3 nM, 5.7 nM and 6 nM.
For `[2H]C([2H])([2H])Oc1ccc([C@@H](CS(C)(=O)=O)N2C(=O)c3c(F)ccc(NC(=O)C4CC4)c3C2=O)cc1OCC` [Compound 118, (S)—N-(2-(1-(3-ethoxy-4-d3-methoxyphenyl)-2-(methylsulfonyl)ethyl)-7-fluoro-1,3-dioxoisoindolin-4-yl)cyclopropanecarboxamide], in that order: 8.7 nM, 2.5 nM and 5.1 nM.
Turning to `[2H]C([2H])([2H])Oc1ccc([C@@H](CS(C)(=O)=O)N2C(=O)c3cccc(NC(=O)C4CC4)c3C2=O)cc1OCC` [Compound 120, (S)—N-(2-(1-(3-ethoxy-4-d3-methoxyphenyl)-2-(methylsulfonyl)ethyl)-1,3-dioxoisoindolin-4-yl)cyclopropanecarboxamide], the IC50 was 11 nM against PDE4B1, 4.9 nM at PDE4D3 and 7.6 nM on PDE4A1A.
For `CCOc1cc(C(CS(C)(=O)=O)N2C(=O)c3c(F)ccc(NC(C)=O)c3C2=O)ccc1OC(F)F` (stereo not drawn) [Compound 121, N-(2-(1-(4-(difluoromethoxy)-3-ethoxyphenyl)-2-(methylsulfonyl)ethyl)-7-fluoro-1,3-dioxoisoindolin-4-yl)acetamide], in that order: 7 nM, 0.9 nM and 3.4 nM.
On the same counts, the results for `CCOc1cc(C(CS(C)(=O)=O)N2C(=O)c3cc(F)cc(NC(C)=O)c3C2=O)ccc1OC` (stereo not drawn) [Compound 201, N-(2-(1-(3-ethoxy-4-methoxyphenyl)-2-(methylsulfonyl)ethyl)-6-fluoro-1,3-dioxoisoindolin-4-yl)acetamide] are 41 nM, 25 nM and 39 nM.
For `CCOc1cc([C@@H](CS(C)(=O)=O)N2C(=O)c3cc(F)cc(NC(C)=O)c3C2=O)ccc1OC` [Compound 202, (S)—N-(2-(1-(3-ethoxy-4-methoxyphenyl)-2-(methylsulfonyl)ethyl)-6-fluoro-1,3-dioxoisoindolin-4-yl)acetamide], the IC50 was determined as 11 nM against PDE4B1, 5.4 nM on PDE4D3 and 11 nM against PDE4A1A.
On to `[2H]C([2H])([2H])Oc1ccc([C@H](CS(C)(=O)=O)N2C(=O)c3cc(F)cc(NC(C)=O)c3C2=O)cc1OCC` [Compound 204, (R)—N-(2-(1-(3-ethoxy-4-d3-methoxyphenyl)-2-(methylsulfonyl)ethyl)-6-fluoro-1,3-dioxoisoindolin-4-yl)acetamide], for which the IC50 on PDE4B1 was determined as 157 nM; at PDE4D3, 83 nM; against PDE4A1A, 133 nM.
On the same counts, the results for `[2H]C([2H])([2H])Oc1ccc([C@@H](CS(C)(=O)=O)N2C(=O)c3cc(F)cc(NC(C)=O)c3C2=O)cc1OC([2H])([2H])[2H]` [Compound 205, (S)—N-(2-(1-(3,4-d6-dimethoxyphenyl)-2-(methylsulfonyl)ethyl)-6-fluoro-1,3-dioxoisoindolin-4-yl)acetamide] are 165 nM, 79 nM and 123 nM.
On the same counts, the results for `[2H]C([2H])([2H])Oc1ccc([C@H](CS(C)(=O)=O)N2C(=O)c3cc(F)cc(NC(C)=O)c3C2=O)cc1OC([2H])([2H])[2H]` [Compound 206, (R)—N-(2-(1-(3,4-d6-dimethoxyphenyl)-2-(methylsulfonyl)ethyl)-6-fluoro-1,3-dioxoisoindolin-4-yl)acetamide] are 1350 nM, 997 nM and 1460 nM.
For `[2H]C([2H])([2H])Oc1ccc([C@@H](CS(C)(=O)=O)N2C(=O)c3cc(F)cc(NC(C)=O)c3C2=O)cc1OC([2H])([2H])C([2H])([2H])[2H]` [Compound 207, (S)—N-(2-(1-(3-d5-ethoxy-4-d3-methoxyphenyl)-2-(methylsulfonyl)ethyl)-6-fluoro-1,3-dioxoisoindolin-4-yl)acetamide], in that order: 20 nM, 12 nM and 20 nM.
Take `CCOc1cc(C(CS(C)(=O)=O)N2C(=O)c3ccc(F)c(NC(C)=O)c3C2=O)ccc1OC` (stereo not drawn) [Compound 301, N-(2-(1-(3-ethoxy-4-methoxyphenyl)-2-(methylsulfonyl)ethyl)-5-fluoro-1,3-dioxoisoindolin-4-yl)acetamide]: the IC50 was 116 nM against PDE4B1, 65 nM against PDE4D3 and 102 nM against PDE4A1A.
On the same counts, the results for `CCOc1cc([C@@H](CS(C)(=O)=O)N2C(=O)c3ccc(F)c(NC(C)=O)c3C2=O)ccc1OC` [Compound 302, (S)—N-(2-(1-(3-ethoxy-4-methoxyphenyl)-2-(methylsulfonyl)ethyl)-5-fluoro-1,3-dioxoisoindolin-4-yl)acetamide] are 41 nM, 22 nM and 33 nM.
For `CCOc1cc(C(CS(C)(=O)=O)N2C(=O)c3ccnc(NC(C)=O)c3C2=O)ccc1OC` (stereo not drawn) [Compound 401, N-(2-(1-(3-ethoxy-4-methoxyphenyl)-2-(methylsulfonyl)ethyl)-1,3-dioxo-2,3-dihydro-1H-pyrrolo[3,4-c]pyridin-4-yl)acetamide], in that order: 211 nM, 110 nM and 182 nM.
Consider `CCOc1cc([C@@H](CS(C)(=O)=O)N2C(=O)c3cncc(NC(C)=O)c3C2=O)ccc1OC` [Compound 502, (S)—N-(2-(1-(3-ethoxy-4-methoxyphenyl)-2-(methylsulfonyl)ethyl)-1,3-dioxo-2,3-dihydro-1H-pyrrolo[3,4-c]pyridin-7-yl)acetamide], for which the IC50 at PDE4B1 was found to be 513 nM; against PDE4D3, 107 nM; against PDE4A1A, 206 nM.
